Assay results published in US20240209401A1, “CULTURE MEDIUM COMPOSITION FOR INCREASING GROWTH AND METABOLIC RATE OF ACETOGENIC STRAIN AND METHOD FOR CULTURING ACETOGENIC STRAIN USING THE SAME” (GWANGJU INSTITUTE OF SCIENCE AND TECHNOLOGY, priority 2022, published 2024).

How the values were obtained:
[1] = tested on: acetogen strain; experiment: Steady-state culture (dilution rate of 0.018/h) with CO and CO2 gas substrates; type: cell-based; conditions: methanol added
Source text: The method for culturing an acetogen strain may include a medium injection step of injecting the acetogen strain culture medium composition containing the C1 compound into a bioreactor; a strain inoculation step of inoculating the acetogenic strain into the culture medium composition; and a bioreactor driving step of culturing the acetogenic strain by driving the bioreactor. […]

[2] = tested on: acetogen strain; experiment: Growth inhibition by high methanol concentration in the medium; type: cell-based; conditions: with respect to the total medium composition
Source text: In this case, the methanol may be contained in a concentration of more than 0 M and 1.5 M or less with respect to the total medium composition.
If the concentration of methanol exceeds 1.5 M, it is not preferable because growth inhibition occurs due to the addition of a high concentration of organic solvent.

Structure (SMILES): CO [methanol]
- cell concentration in the steady state [1]: 17.4 g/L
- cell conversion yield [1]: 0.008 g DCW/mmol MeOH
- concentration of methanol at which growth inhibition occurs [2]: exceeds 1.5 M
